Patent publication US12454514B2, “Quinazolinone compounds” (Cerepeut, Inc., priority 2019, dated 2025)

tested on: Molt-4 cells; test: CellTiter-Glo Luminescent Cell Viability Assay (growth inhibition, 72 hour incubation); assay type: cell-based; details: Homo sapiens, 72 hours treatment, CellTiter Glo luminescence
Description: CellTiter-Glo Luminescent Cell Viability Assay Kit was obtained from Promega. RPMI 1640 was obtained from Invitrogen. Fetal Bovine Serum (FBS) was obtained from Corning. L-glutamine was obtained from Invitrogen. 100× Penicillin-Streptomycin was obtained from HyClone. 0.05% Trypsin-EDTA (T-E) was obtained from Invitrogen. DPBS was obtained from Corning. DMSO was obtained from Sigma. Black 384 well plates were obtained from Greiner. 96-well V bottom plates were obtained from Axygen. For cell seeding on Day “−1”, the density of Molt-4 cells was adjusted according to supplier-recommended information. 50 μL cells were seeded in four 384-well-plates, and 50 μL DPBS was added to the edge wells. On Day 0, test compounds were dissolved in DMSO and stored in a nitrogen cabinet. The stock concentration of the test compounds was 120 mM. The stock concentration of the reference compounds was 10 mM. Test compounds (125 nL in DMSO) were added to the wells and serially diluted by three fold, providing 10 doses in each series with a maximum concentration of 300 μM. Equal volumes of DMSO without test compound were transferred to control rows in the well plate. Using this procedure, the DMSO concentration across the well plate was 0.25% (v/v). On Day 3 (after the cells were treated with the compounds for 72 hours), the plates were equilibrated at room temperature for approximately 30 minutes. 25 μL of CellTiter Glo reagent was added to each well, and the luminescence in each well was measured after 10 min using an ENVISION fluorescence plate reader (PerkinElmer). The calculation formula used for data analysis was: Inhibition %=(Max−Sample Value)/Max*100. Curves were fitted by Prism with a Sigmoidal dose-response (variable slope) model and generated by 4 Parameter Logistic Model or Sigmoidal Dose-Response Model, Y=Bottom+(Top−Bottom)/(1+10^((log EC50−x)*HillSlope)). To evaluate the anti-tumor activity of the compounds, the growth inhibitory effect of the compound was measured in various human cancer cell lines after 72 hour incubation. In the assays, the viability of the Molt-4 cells was greater than 85% during the initial cell plating. All the cell plates met the criteria that the coefficient of variation (CV)<10%. Observed IC50 values are summarized below, along with the observed IC50 value for reference compound 6-chloro-3-(2,4-dichloro-5-methoxyphenyl)-2-mercapto-7-methoxyquinazolin-4(3H)-one.

Q: With COc1cc2nc(S)n(-c3cc(OC)c(OC)cc3Cl)c(=O)c2cc1Cl [Compound 1, 6-Chloro-3-(2-chloro-4,5-dimethoxyphenyl)-2-mercapto-7-methoxyquinazolin-4(3H)-one] as the compound, how does the IC50 read?
A: Its IC50 is > 30 µM.

Q: Which IC50 does the source give for COc1cc(-n2c(S)nc3cc(OC)c(Cl)cc3c2=O)c(Cl)cc1F [Compound 2, 6-Chloro-3-(2-chloro-4-fluoro-5-methoxyphenyl)-2-mercapto-7-methoxyquinazolin-4(3H)-one] here?
A: The IC50 was 3 to 30 µM.

Q: COc1cc(-n2c(S)nc3cc(OC)c(Cl)cc3c2=O)c(OC)cc1Cl [Compound 3, 6-Chloro-3-(4-chloro-2,5-dimethoxyphenyl)-2-mercapto-7-methoxyquinazolin-4(3H)-one] was tested. Which IC50 did it give?
A: Its IC50 is 3 to 30 µM.

Q: Which IC50 does the source give for COc1cc2nc(S)n(-c3cc(F)c(Cl)cc3Cl)c(=O)c2cc1Cl [Compound 4, 6-Chloro-3-(2,4-dichloro-5-fluorophenyl)-2-mercapto-7-methoxyquinazolin-4(3H)-one] here?
A: Its IC50 is 3 to 30 µM.

Q: COc1ccc2c(=O)n(-c3cc(OC)c(Cl)cc3Cl)c(S)nc2c1 [Compound 5, 3-(2,4-dichloro-5-methoxyphenyl)-2-mercapto-7-methoxyquinazolin-4(3H)-one] was tested. Which IC50 did it give?
A: The IC50 was 3 to 30 µM.

Q: With COc1cc(-n2c(S)nc3cc(OC)c(OC)cc3c2=O)c(Cl)cc1Cl [Compound 6, 3-(2,4-dichloro-5-methoxyphenyl)-2-mercapto-6,7-dimethoxyquinazolin-4(3H)-one] as the compound, how does the IC50 read?
A: Its IC50 is < 3 µM.

Q: For COc1cc2nc(S)n(-c3cc(OC)c(Cl)cc3Cl)c(=O)c2cc1O [Compound 7, 3-(2,4-Dichloro-5-methoxyphenyl)-6-hydroxy-2-mercapto-7-methoxyquinazolin-4(3H)-one], which IC50 is on record?
A: Its IC50 is < 3 µM.

Q: For COc1cc2nc(S)n(-c3cc(OC)c(Cl)cc3Cl)c(=O)c2cc1N [Compound 8, 6-Amino-3-(2,4-dichloro-5-methoxyphenyl)-2-mercapto-7-methoxyquinazolin-4(3H)-one], which IC50 is on record?
A: Its IC50 is < 3 µM.

Q: For COc1cc(-n2c(S)nc3cc(OC)c(C4CC4)cc3c2=O)c(Cl)cc1Cl [Compound 9, 6-Cyclopropyl-3-(2,4-dichloro-5-methoxyphenyl)-2-mercapto-7-methoxyquinazolin-4(3H)-one], which IC50 is on record?
A: Its IC50 is < 3 µM.

Q: Cc1cc(-n2c(S)nc3ccc(Cl)cc3c2=O)c(Cl)cc1Cl [Compound 10, 6-chloro-3-(2,4-Dichloro-5-methylphenyl)-2-mercaptoquinazolin-4(3H)-one] was tested. Which IC50 did it give?
A: Its IC50 is 3 to 30 µM.

Q: How did the IC50 turn out when COc1cc(-n2c(S)nc3cc(C4CC4)c(Cl)cc3c2=O)c(Cl)cc1Cl [Compound 11, 6-Chloro-7-cyclopropyl-3-(2,4-dichloro-5-methoxyphenyl)-2-mercaptoquinazolin-4(3H)-one] was run?
A: Its IC50 is 3 to 30 µM.

Q: C=Cc1c(OC)c(Cl)cc2c(=O)n(-c3cc(OC)c(Cl)cc3Cl)c(S)nc12 [Compound 12, 6-Chloro-3-(2,4-dichloro-5-methoxyphenyl)-2-mercapto-7-methoxy-8-vinylquinazolin-4(3H)-one] was tested. Which IC50 did it give?
A: Its IC50 is > 30 µM.

Q: Which IC50 does the source give for COc1cc(-n2c(S)nc3c(C4CC4)c(OC)c(Cl)cc3c2=O)c(Cl)cc1Cl [Compound 13, 6-Chloro-8-cyclopropyl-3-(2,4-dichloro-5-methoxyphenyl)-2-mercapto-7-methoxyquinazolin-4(3H)-one] here?
A: Its IC50 is 3 to 30 µM.

Q: For COc1cc(-n2c(S)nc3cc(OC)c(Cl)cc3c2=O)c(Cl)cc1Cl [Ref. 1, 6-chloro-3-(2,4-dichloro-5-methoxyphenyl)-2-mercapto-7-methoxyquinazolin-4(3H)-one, reference compound], which IC50 is on record?
A: Its IC50 is 3 to 30 µM.
